Results published in patent publication EP0089926A2, “Pharmaceutical preparations of tetracycles containing nitrogen, and compounds of this type” (CIBA-GEIGY AG, priority 1982, dated 1983).

System: Mäuse
Experiment: Step-down platform passive avoidance test, direct measurement of improvement of memory performance
Type: in vivo
Conditions: male mice, 1 mg/kg i.p. within 10 seconds after foot shock, time on platform 24 hours later versus solvent controls
Excerpt: Zur unmittelbaren […]: • Die Testvorrichtung besteht aus […] normal beleuchteten Box (50 […]äbe (6 mm Durchmesser) in einem Abstand von jeweils 13 mm angeordnet sind. In […] Gitterrostes ist eine hölzerne Plattform (10 mm Höhe, 67 mm Durchmesser) angebracht, welche von […] hoch, 68 mm […]. Zur Durchführung des Trainings werden Gruppen von jeweils 30 männlichen Mäusen (20 - 25 g) verwendet, indem jeweils ein Tier auf die von […] die […] und die Zeitdauer gemessen wird, welche das Tier zum Hinabsteigen und Berühren des Gitterrostes mit allen 4 Pfoten benö[…] von 10 Sekunden nach Verabreichung des Fussschocks werden die Testsubstanzen in Dosen von 0,1 mg/kg, 1 mg/kg und 10 mg/kg (für jede Dosis werden 30 Mäuse verwendet) je nach Löslichkeit als Lösung in physiologischer NaCl-Lösung oder einer 0,5%-igen Lösung von Methylcellulose in Wasser intraperitoneal verabreicht.

SMILES	Verbesserung der Gedächtnisleistung
CCC1(CCC(=O)OC)CCN2CCc3c([nH]c4ccccc34)C21 (racemic) [cis-1-Aethyl-2,3,5,6,11,11b-hexahydro-1H-indolizino[8,7-b]indol-1-propionsäuremethylester]	eine Verbesserung der Gedächtnisleistung
CCC1(CC(O)C(=O)OC)CCN2CCc3c([nH]c4ccccc34)C21 (racemic) [erythro-cis-a-Hydroxy-1-äthyl-2,3,5,6,11,11b-hexahydro-1H-indolizino[8,7-b]indol-1-propionsäuremethylester]	eine Verbesserung der Gedächtnisleistung
